Assays:
[1] = test system: IgG in plasma of HLA-A2^+ healthy donors and prostate cancer patients; assay: Peptide-specific IgG in plasma by ELISA (HLA-A2-binding PTHrP peptides); set-up: species or system human; settings: for IgG reactive to the peptide in plasma (difference of OD): 1:100-diluted plasma
Description: Peptide-specific IgG levels in the plasma were measured by ELISA, as previously reported. In brief, peptide (20 μg/well)-immobilized plates were blocked with Block Ace (Yukijirushi, Tokyo, Japan) and washed with 0.05% Tween20-PBS, after which 100 μl/well of plasma sample diluted with 0.05% Tween20-Block Ace was added to the plate. After 2 hours incubation at 37° C., the plates were washed and further incubated for 2 hours with a 1:1000-diluted rabbit anti-human IgG (γ-chain-specific) (DAKO, Glostrup, Denmark). The plates were washed, and then 100 μl of 1:100-diluted goat anti-rabbit IgG-conjugated horseradish peroxidase (EnVision, DAKO) was added to each well, and the plates were then incubated at room temperature for 40 min. After the plates were washed once, 100 μl/well of tetramethyl benzidine substrate solution (KPL, Guildford, UK) was added, and the reaction was stopped by the addition of 1 M phosphoric acid. The values are shown as optical density (OD) units/ml, and responses to the HIV peptide were subtracted. IgG reactive to a corresponding PTHrP peptide was judged to be positive when the difference of the OD in 1:100-diluted plasma exceeded 0.05. The results that IgG reactive to either the PTHrP102-111 or the […] peptide was detected in 8 of 10 healthy donors and in 7 of 10 prostate cancers are shown in Table 2 hereinafter.
In a similar way to Example 3, it was examined whether IgGs reactive to peptides of PTHrP 42-51 and PTHrP 59-67 could be detected in the plasma of 10 healthy donors and 10 cancer patients. The cut-off value at 1:100-diluted plasma was ODO.054.

[2] = test system: PBMCs of HLA-A2^+ healthy donors and prostate cancer patients; assay: Assay for peptide-specific CTLs in PBMCs (IFN-γ ELISA, peptide-pulsed T2 cells); assay type: cell-based, human; settings: for INF-γ production: T2 cells

In the case of IQDLRRRFFL [PTHrP 51-60], the “IgG reactive to the peptide in plasma (difference of OD)” value (shortened to “IgG reactive … (difference of OD)”) ([1]; HLA-A2^+ healthy donor #1) is reported as 0.0945 OD, the “IgG reactive … (difference of OD)” value ([1]; HLA-A2^+ healthy donor #2) is reported as 0.1338 OD and the “IgG reactive … (difference of OD)” value ([1]; HLA-A2^+ healthy donor #3) is reported as “— (IgG reactive to a corresponding peptide was judged to be positive when a difference of OD in a 1:100-diluted plasma was more than 0.054.)”. The “IgG reactive … (difference of OD)” value ([1]; HLA-A2^+ healthy donor #4) was “— (IgG reactive to a corresponding peptide was judged to be positive when a difference of OD in a 1:100-diluted plasma was more than 0.054.)”, the “IgG reactive … (difference of OD)” value ([1]; HLA-A2^+ healthy donor #5) was “— (IgG reactive to a corresponding peptide was judged to be positive when a difference of OD in a 1:100-diluted plasma was more than 0.054.)” and the “IgG reactive … (difference of OD)” value ([1]; HLA-A2^+ healthy donor #6) was “— (IgG reactive to a corresponding peptide was judged to be positive when a difference of OD in a 1:100-diluted plasma was more than 0.054.)”. The “IgG reactive … (difference of OD)” value ([1]; HLA-A2^+ healthy donor #7) was 0.0675 OD, the “IgG reactive … (difference of OD)” value ([1]; HLA-A2^+ healthy donor #8) was “— (IgG reactive to a corresponding peptide was judged to be positive when a difference of OD in a 1:100-diluted plasma was more than 0.054.)” and the “IgG reactive … (difference of OD)” value ([1]; HLA-A2^+ healthy donor #9) was “— (IgG reactive to a corresponding peptide was judged to be positive when a difference of OD in a 1:100-diluted plasma was more than 0.054.)”. For the same sequence, the “IgG reactive … (difference of OD)” value ([1]; HLA-A2^+ healthy donor #10) was “— (IgG reactive to a corresponding peptide was judged to be positive when a difference of OD in a 1:100-diluted plasma was more than 0.054.)”, the “Total (IgG-positive donors / donors tested)” value ([1]; HLA-A2^+ healthy donors) was 3/10 and the “IgG reactive … (difference of OD)” value ([1]; HLA-A2^+ prostate cancer patient #1) was “— (IgG reactive to a corresponding peptide was judged to be positive when a difference of OD in a 1:100-diluted plasma was more than 0.054.)”. For the same sequence, the “IgG reactive … (difference of OD)” value ([1]; HLA-A2^+ prostate cancer patient #2) was “— (IgG reactive to a corresponding peptide was judged to be positive when a difference of OD in a 1:100-diluted plasma was more than 0.054.)”, the “IgG reactive … (difference of OD)” value ([1]; HLA-A2^+ prostate cancer patient #3) was 0.0675 OD and the “IgG reactive … (difference of OD)” value ([1]; HLA-A2^+ prostate cancer patient #4) was “— (IgG reactive to a corresponding peptide was judged to be positive when a difference of OD in a 1:100-diluted plasma was more than 0.054.)”. For the same sequence, the “IgG reactive … (difference of OD)” value ([1]; HLA-A2^+ prostate cancer patient #5) was “— (IgG reactive to a corresponding peptide was judged to be positive when a difference of OD in a 1:100-diluted plasma was more than 0.054.)”, the “IgG reactive … (difference of OD)” value ([1]; HLA-A2^+ prostate cancer patient #6) was “— (IgG reactive to a corresponding peptide was judged to be positive when a difference of OD in a 1:100-diluted plasma was more than 0.054.)” and the “IgG reactive … (difference of OD)” value ([1]; HLA-A2^+ prostate cancer patient #7) was “— (IgG reactive to a corresponding peptide was judged to be positive when a difference of OD in a 1:100-diluted plasma was more than 0.054.)”. For the same sequence, the “IgG reactive … (difference of OD)” value ([1]; HLA-A2^+ prostate cancer patient #8) was “— (IgG reactive to a corresponding peptide was judged to be positive when a difference of OD in a 1:100-diluted plasma was more than 0.054.)”, the “IgG reactive … (difference of OD)” value ([1]; HLA-A2^+ prostate cancer patient #9) was “— (IgG reactive to a corresponding peptide was judged to be positive when a difference of OD in a 1:100-diluted plasma was more than 0.054.)” and the “IgG reactive … (difference of OD)” value ([1]; HLA-A2^+ prostate cancer patient #10) was 0.0995 OD. The “Total (IgG-positive patients / patients tested)” value ([1]; HLA-A2^+ prostate cancer patients) was 2/10, the INF-γ production ([2]; HLA-A2^+ healthy donor #1 (A0201)) was 0 pg/mL and the INF-γ production ([2]; HLA-A2^+ healthy donor #2 (A0201)) was 79 pg/mL. The INF-γ production ([2]; HLA-A2^+ healthy donor #3 (A0201)) was 0 pg/mL, the INF-γ production ([2]; HLA-A2^+ healthy donor #4 (A0201)) was 314 pg/mL and the INF-γ production ([2]; HLA-A2^+ healthy donor #5 (A0206)) was 0 pg/mL. The INF-γ production ([2]; HLA-A2^+ healthy donor #6 (A0206)) was 46 pg/mL, the INF-γ production ([2]; HLA-A2^+ healthy donor #7 (A0206)) was 0 pg/mL and the INF-γ production ([2]; HLA-A2^+ healthy donor #8 (A0206)) was 16 pg/mL. The INF-γ production ([2]; HLA-A2^+ healthy donor #9 (A0206)) was 0 pg/mL, the INF-γ production ([2]; HLA-A2^+ healthy donor #10 (A0207)) was 14 pg/mL and the “Total (donors with significant peptide-specific IFN-γ production / donors tested)” value ([2]; HLA-A2^+ healthy donors, p < 0.05) was 2/10. For the same sequence, the INF-γ production ([2]; HLA-A2^+ prostate cancer patient #1 (A0206)) was 55 pg/mL, the INF-γ production ([2]; HLA-A2^+ prostate cancer patient #2 (A0210)) was 187 pg/mL and the INF-γ production ([2]; HLA-A2^+ prostate cancer patient #3 (A0210)) was 34 pg/mL. It also gave an INF-γ production ([2]; HLA-A2^+ prostate cancer patient #4 (A0206)) of 33 pg/mL, an INF-γ production ([2]; HLA-A2^+ prostate cancer patient #5 (A0206)) of 0 pg/mL and an INF-γ production ([2]; HLA-A2^+ prostate cancer patient #6 (A0207)) of 0 pg/mL. The INF-γ production ([2]; HLA-A2^+ prostate cancer patient #7 (A0206)) was 0 pg/mL, the INF-γ production ([2]; HLA-A2^+ prostate cancer patient #8 (A0206)) was 2 pg/mL and the INF-γ production ([2]; HLA-A2^+ prostate cancer patient #9 (A0201)) was 67 pg/mL. For the same sequence, the INF-γ production ([2]; HLA-A2^+ prostate cancer patient #10 (A0201)) was 21 pg/mL and the “Total (patients with significant peptide-specific IFN-γ production / patients tested)” value ([2]; HLA-A2^+ prostate cancer patients, p < 0.05) was 2/10.

From patent US20080014186A1, “Hla-A24 or Hla-A2 Binding Peptides of Parathyroid Hormone-Related Protein” (GREEN PEPTIDE CO., LTD., priority 2004, published 2008)
